Test system: subjects with chronic ITP who completed 28 days of study treatment
Assay: Phase 2 6-month rollover study of E5501: effectiveness (durable, transient, overall platelet response, maintenance, steroid use, upward dose titration)
Assay type: in vivo, human
Procedure: This study was a multicenter, parallel-group, rollover study of E5501 in subjects with chronic ITP who were enrolled in and completed 28 days' of study treatment. All subjects who completed the previous study and otherwise met the eligibility criteria for this rollover protocol were enrolled.
Subjects who rolled over from the previous study were treated for an additional 6 months after completing previous study.
Initial dose: Subjects who met the efficacy response in the previous study continued to receive their previous blinded dose at entry into this study.
Dose titration was performed in an open label fashion in 10 mg increments as follows: • Nonresponders, who received initial doses of open-label E5501 10 mg in the previous study, could have their dose increased in 10 mg increments every 14 days to a maximum of 40 mg/day in the absence of platelet response.
Subjects were also permitted to reduce their dose of ITP-directed concomitant therapy (e.g., steroids). The overall goal of any dose modification was to maintain the subject's peripheral platelet count above 50,000/mm^3 and to decrease the need for ITP-directed concomitant medications (if applicable). During any dose modification of study drug or ITP-directed concomitant medications, platelet counts were collected every week. After platelet counts stabilized, platelet count collection reverted to a biweekly schedule.
Assessments: Study subjects were evaluated for safety and efficacy (including platelet count) on day 1 and then biweekly while receiving treatment.
Two primary analysis populations were used to summarize safety and effectiveness: • Safety population: all subjects who received at least 1 dose of study drug and had at least 1 post-treatment safety assessment in either the previous or this study. All safety analyses were performed using this population. • Full Analysis Set (FAS): all subjects who participated in both studies and who had at least one post-treatment effectiveness assessment in this study. All efficacy analyses were performed using this population.
Secondary Endpoints: The secondary endpoints were markers of effectiveness, including: • 1. Changes in platelet count from baselines of the previous study and of this study by study visit; and • 2. Durable platelet response, defined as subjects who had at least 3 platelet count assessments in the last 14 weeks of the 24-week treatment period, and whose platelet count was at a response level for at least 75% of the time in the last 14 weeks during the 24-week treatment period, with no rescue medication used during the 24-week treatment period. Platelet response level was defined as ≧50,000/mm^3 for subjects whose baseline platelet count was <30,000/mm^3 in the previous study or an increase in baseline platelet count of ≧20,000/mm^3 for subjects receiving steroids whose baseline platelet count in the previous study was ≧30,000/mm^3 but <50,000/mm^3; • 3. Transient platelet response, defined as achievement of a response level for any 4 consecutive weeks during the 24-week treatment period without durable platelet response in the absence of any rescue medication; • 4. Overall platelet response (durable platelet response plus transient platelet response); • 5. Maintenance of platelet response, defined as subjects who were responders in the previous study (e.g., responders on day 28 of the previous study) who achieved a durable response in this study and had no upward dose titration of E5501 during this study; • 6. Permanent discontinuation of steroid use, defined as subjects who used steroid medication within the 2-week period before their first dose of study drug in this study, and for whom concomitant steroid medication was discontinued at least 8 weeks before the end of the treatment period; • 7. Reduction of steroid use by at least 50%. […]

[1] = FAS, Baseline PC >15K/mm^3, Responders, N assessed 19
[2] = FAS, Baseline PC ≦15K/mm^3, E5501 Total, N assessed 15
[3] = FAS, Baseline PC ≦15K/mm^3, Non-Responders, N assessed 9
[4] = FAS, Baseline PC ≦15K/mm^3, Responders, N assessed 6
[5] = FAS, History of Splenectomy, E5501 Total, N assessed 17
[6] = FAS, History of Splenectomy, Non-Responders, N assessed 10
[7] = FAS, History of Splenectomy, Responders, N assessed 7
[8] = FAS, No History of Splenectomy, E5501 Total, N assessed 36
[9] = FAS, No History of Splenectomy, Non-Responders, N assessed 18
[10] = FAS, No History of Splenectomy, Responders, N assessed 18
[11] = FAS, ≧3 Lines of Prior Therapy, E5501 Total, N assessed 35
[12] = FAS, ≧3 Lines of Prior Therapy, Non-Responders, N assessed 22
[13] = FAS, ≧3 Lines of Prior Therapy, Responders, N assessed 13
[14] = SE population, E5501 Total (N=36)
[15] = SE population, Non-Responders (N=15)
[16] = SE population, Responders (N=21)

O=C(Nc1nc(-c2cc(Cl)cs2)c(N2CCN(C3CCCCC3)CC2)s1)c1cnc(N2CCC(C(=O)O)CC2)c(Cl)c1 [E5501, 1-(3-chloro-5-{[4-(4-chlorothiophen-2-yl)-5-(4-cyclohexylpiperazin-1-yl)thiazol-2-yl]carbamoyl}pyridine-2-yl)piperidine-4-carboxylic acid]
Durable Platelet Response, n (%) with response [1]: 15 (78.9) n (%) | Overall Platelet Response, n (%) with response [1]: 18 (94.7) n (%) | Durable Platelet Response, n (%) with response [2]: 4 (26.7) n (%) | Overall Platelet Response, n (%) with response [2]: 7 (46.7) n (%) | Durable Platelet Response, n (%) with response [3]: 1 (11.1) n (%) | Overall Platelet Response, n (%) with response [3]: 3 (33.3) n (%) | Durable Platelet Response, n (%) with response [4]: 3 (50.0) n (%) | Overall Platelet Response, n (%) with response [4]: 4 (66.7) n (%) | Durable Platelet Response, n (%) with response [5]: 5 (29.4) n (%) | Overall Platelet Response, n (%) with response [5]: 10 (58.8) n (%) | Durable Platelet Response, n (%) with response [6]: 1 (10.0) n (%) | Overall Platelet Response, n (%) with response [6]: 5 (50.0) n (%) | Durable Platelet Response, n (%) with response [7]: 4 (57.1) n (%) | Overall Platelet Response, n (%) with response [7]: 5 (71.4) n (%) | Durable Platelet Response, n (%) with response [8]: 23 (63.9) n (%) | Overall Platelet Response, n (%) with response [8]: 30 (83.3) n (%) | Durable Platelet Response, n (%) with response [9]: 9 (50.0) n (%) | Overall Platelet Response, n (%) with response [9]: 13 (72.2) n (%) | Durable Platelet Response, n (%) with response [10]: 14 (77.8) n (%) | Overall Platelet Response, n (%) with response [10]: 17 (94.4) n (%) | overall platelet response rate (FAS, all subjects): 75.5% | overall platelet response rate (FAS, nonresponders): 64.3% | overall platelet response rate (FAS, responders): 88.0% | Durable Platelet Response, n (%) with response [11]: 16 (45.7) n (%) | Overall Platelet Response, n (%) with response [11]: 25 (71.4) n (%) | Durable Platelet Response, n (%) with response [12]: 7 (31.8) n (%) | Overall Platelet Response, n (%) with response [12]: 14 (63.6) n (%) | Durable Platelet Response, n (%) with response [13]: 9 (69.2) n (%) | Overall Platelet Response, n (%) with response [13]: 11 (84.6) n (%) | overall platelet response rate (SE population): 94.4% | Durable Platelet Response No, % [14]: (25.0) % | Durable Platelet Response Yes, % [14]: (75.0) % | Transient Platelet Response No, % [14]: (80.6) % | Transient Platelet Response Yes, % [14]: (19.4) % | With Overall Response No, % [14]: (5.6) % | With Overall Response Yes, % [14]: (94.4) % | Durable Platelet Response No, % [15]: (40.0) % | Durable Platelet Response Yes, % [15]: (60.0) % | Transient Platelet Response No, % [15]: (73.3) % | Transient Platelet Response Yes, % [15]: (26.7) % | With Overall Response No, % [15]: (13.3) % | With Overall Response Yes, % [15]: (86.7) % | Durable Platelet Response No, % [16]: (14.3) % | Durable Platelet Response Yes, % [16]: (85.7) % | Transient Platelet Response No, % [16]: (85.7) % | Transient Platelet Response Yes, % [16]: (14.3) % | With Overall Response Yes, % [16]: (100.0) % | Durable platelet response rate (SE population, all subjects): 75% | Durable platelet response rate (SE population, non-responders): 60.0% | Durable platelet response rate (SE population, responders): 85.7% | subjects who needed an upward dose titration (all subjects (n=26/53)): 49% | subjects able to decrease their steroid dose by at least 50% (in vivo): Thirteen | improved overall response rate when subjects received a dose titration (non-responders in the previous study): 87.6% | overall response rate (non-responders on E5501 2.5 mg in previous study, open-label E5501 10 mg in current study): 70% | overall response rate (non-responders on E5501 5 mg in previous study, open-label E5501 10 mg in current study): 80% | overall response rate (non-responders on placebo in previous study, open-label E5501 10 mg in current study): 80% | subjects not responding to E5501 10 mg in the previous study who responded at 20 mg (of five subjects): Two | subjects who used concomitant steroids able to decrease their concomitant steroid use by at least 50% (regardless of responder status): 54.2% | subjects who used concomitant steroids able to permanently discontinue using steroids (regardless of responder status): 33.3% | overall response when subjects received a dose titration (responders in the previous study): 100% | overall response rate (responders receiving double-blind E5501 10 mg): 71.4% | platelet counts from baseline (FIG. 2 FAS, FIG. 3 SE population) (rollover study): markedly increased from baseline | durable platelet response estimate (sensitivity analysis based on 55 subjects, all subjects): 50.9% | durable platelet response estimate (sensitivity analysis, non-responders): 33.3% | durable platelet response estimate (sensitivity analysis, responders): 72%
